# Marks after values point to notes of the source that are not given here.
# What was measured:
# [1] = Uterine and vaginal weight in ovariectomized BALB/c mice treated orally for 9 days with or without estrone (Example 3); assay type: in vivo; conditions: for inhibition of estrone-stimulated uterine weight / inhibition of vaginal weight (estrone-stimulated): OVX mice + estrone; for stimulation of uterine weight (estrogenic effect) / stimulation of vaginal weight (estrogenic effect): OVX mice, absence of estrone, 10 μg daily (no-effect statements: 1 μg and 10 μg)
# Protocol: Female BALB/c mice (BALB/cAnNCrlBR) weighing 18-20 g were obtained from Charles-River, Inc. (St-Constant, Quebec, Canada) and housed 5 per cage in a temperature (23±1° C.)- and light (12 h light/day, lights on at 7:15)-controlled environment. The mice were fed rodent chow and tap water ad libitum. The animals were ovariectomized (OVX) under Isoflurane anesthesia via bilateral flank incisions and randomly assigned to groups of 10 animals. Ten mice were kept intact as controls.
# In the second experiment (Table 6), TSE 424 was administered orally by gavage once daily at doses of 1, 3, 10 or 30 μg/animal for 9 days, starting 2 days after ovariectomy. In both experiments, to evaluate the antiestrogenic activity, treatment with estrone (E1, […], s.c. injection, twice daily) was started 5 days post-ovariectomy and was administered for a 6 day-period. Compounds were dissolved in ethanol (4% final concentration) and administered in 0.4% methylcellulose. Mice in the intact and OVX control groups received the vehicle alone (4% ETOH-0.4% methylcellulose) during the 9-day period. The animals were killed by exsanguination at the abdominal aorta on the 11th morning following ovariectomy. The uteri and vagina were rapidly dissected, weighed, and kept in 10% buffered formalin for further histologic examination.
# [2] = Endometrial epithelium thickness in OVX nude mice after 161 days of antiestrogen (Example 8); assay type: in vivo; conditions: for inhibition of the stimulatory effect of estrone on epithelial height: 50 μg daily oral, estrone stimulation; for height of uterine epithelial cells, % of the OVX control group value: 200 μg daily, absence of estrone
# Text: The 17 groups included two control groups (OVX and OVX+Estrone), seven groups supplemented with an estrone implant and treated with an antiestrogen and eight other groups that received an antiestrogen alone. The estrone implants were then removed from the animals in the ovariectomized control group (OVX) and in groups that were to receive the antiestrogen alone. […] Tamoxifen was purchased from […]) while toremifene citrate was purchased from Orion (Espoo, Finland). […] The antiestrogen suspensions at the appropriate concentration were prepared each month, stored at 4° C. and used under constant agitation. Powder stock were hermetically stored at 4° C. […] After 161 days of treatment, the remaining animals were anesthetized with isoflurane and killed by exsanguination. […] The uteri were prepared to evaluate endometrial thickness by image analysis performed with Image Pro-Plus (Media Cybernetics, Maryland, USA). […] Hematoxylin- and eosin-stained sections of mice uteri were analyzed. […] Mean epithelial cell height was measured in all animals of each group.
# [3] = system: ZR-75-1 human breast cancer xenografts; assay: Growth and response of human ZR-75-1 breast tumors in OVX nude mice, 7 antiestrogens for 161 days with or without estrone (Example 8); assay type: in vivo; conditions: for increase of average tumor size over baseline (agonistic effect) / tumors in the progression category, % / tumors in the progression category, number of total: absence of estrone, 200 μg daily; for increase of average tumor size over baseline (agonistic effect) / progressing tumors, % of tumors / progressing tumors, number of total / tumors in the progression category, % / tumors in the progression category, number of total: 161 days; for average tumor size above pretreatment values: estrone-stimulated, 50 μg oral daily, 23 weeks; for progressing tumors, % of tumors / progressing tumors, number of total: estrone-supplemented, 50 μg daily
# Protocol: ZR-75-1 human breast cancer cells were obtained from the American Type Culture Collection (Rockville, Md.) and cultured in phenol red-free RPMI-1640 medium. […] (Saint-Constant, Québec, Canada). The mice (5 per cage) were housed in vinyl cages equipped with air filter lids, which were kept in laminar airflow hoods and maintained under pathogen-limiting conditions. The photoperiod was 12 hours of light and 12 hours of darkness (lights on at 07:15). Cages, bedding and food (Agway Pro-Lab R-M-H Diet #4018) were autoclaved before use. Water was autoclaved and provided ad libitum. Bilateral ovariectomy was performed under isoflurane-induced anesthesia. […] Randomization and treatments were started one week later. […] The estrone implants were then removed from the animals in the ovariectomized control group (OVX) and in groups that were to receive the antiestrogen alone. […] Tamoxifen was purchased from […]) while toremifene citrate was purchased from Orion (Espoo, Finland). […] The antiestrogen suspensions at the appropriate concentration were prepared each month, stored at 4° C. and used under constant agitation. Powder stock were hermetically stored at 4° C. […] Two perpendicular diameters were recorded and tumor area (mm2) was calculated using the formula: […] Tumor response was assessed at the end of the study or at death of each animal, if it occurred during the course of the experiment. In this case, only data of mice that survived for at least half of the study ([…]) were used in the tumor response analysis.
# [4] = 3-month treatment of ovariectomized rats: lumbar spine BMD, total body fat, serum cholesterol, ALP (Example 4, experiment 1); assay type: in vivo, rat; conditions: OVX rats, 3 months
# Protocol: Ten to twelve week-old female Sprague-Dawley rats (Crl:CD(SD)Br) (Charles River Laboratory, St-Constant, Canada) weighing approximately 220-270 g at start of treatment were used. The animals were acclimatized to the environmental conditions (temperature: 22±3° C.; humidity: 50±20%; 12-h light-12-h dark cycles, lights on at 07:15 h) for at least 1 week before starting the experiments. The animals were housed individually and were allowed free access to tap water and a pelleted certified rodent feed (Lab Diet 5002, Ralston Purina, St-Louis, Mo.). Experiments were conducted in an animal facility approved by the Canadian Council on Animal Care (CCAC) and the Association for Assessment and Accreditation of Laboratory Animal Care (AAALAC) in accordance with the CCAC Guide for Care and Use of Experimental Animals.
# On day 1 of the study, the animals of the appropriate groups were bilaterally ovariectomized (OVX) under isoflurane anesthesia. The DHEA was applied topically on the dorsal skin as a solution in 50% ethanol-50% propylene glycol while the other tested compounds were administered as suspension in 0.4% methylcellulose by oral gavage. Treatments were initiated on day 2 of the study and were performed once daily during 3 months.
# After 3 months (experiment 1) or 26 weeks (experiment 2) of treatment, individual rats under Isoflurane anesthesia had their whole body skeleton and lumbar spine scanned using dual energy x-ray absorptiometry (DEXA; QDR 4500A, Hologic, Waltham, Mass.) and a Regional High Resolution Scan software. The bone mineral density (BMD) of the lumbar spine (vertebrae L2 to L4) and the total body composition (fat percentage) were determined.
# After 3 months (experiment 1) or 26 weeks (experiment 2) of treatment, blood samples were collected at the jugular vein from overnight fasted animals (under Isoflurane anesthesia). Samples were processed for serum preparation and frozen at −80° C. until assay. Serum cholesterol levels and alkaline phospatase activity (ALP) were determined using the Boehringer Mannheim Diagnostic Hitachi 911 Analyzer (Boehringer Mannheim Diagnostic Laboratory Systems).
# [5] = system: human Ishikawa cells; assay: Alkaline phosphatase activity in human endometrial adenocarcinoma Ishikawa cells (Example 6); conditions: for IC50 / Emax: Homo sapiens, Ishikawa, 120 h; for IC50: read-out: Inhibition of 1 nM E2-induced stimulation of alkaline phosphatase IC50; for Emax: read-out: Maximal stimulation of alkaline phosphatase % of 1 nM E2 stimulation; for Maximal inhibition of 1 nM E2-induced stimulation of alkaline phosphatase: Ishikawa cells, 5-day incubation
# [6] = OVX + E1, antiestrogen 50 μg daily
# [7] = OVX without E1, antiestrogen 200 μg daily
# [8] = E2 1 mg/kg, EM-652.HCl 2.5 mg/kg, DHEA 80 mg/kg
SMILES,inhibition of the stimulatory effect of estrone on epithelial height [2] [%],"height of uterine epithelial cells, % of the OVX control group value [2] [%]","ENDOMETRIAL EPITHELIUM THICKNESS (μm) ± SEM [2, 6]","ENDOMETRIAL EPITHELIUM THICKNESS (μm) ± SEM [2, 7]",increase of average tumor size over baseline (agonistic effect) [3],average tumor size above pretreatment values [3] [%],"progressing tumors, % of tumors [3] [%]","progressing tumors, number of total [3]",IC50 [5] [nM],Emax [5] [%],Maximal inhibition of 1 nM E2-induced stimulation of alkaline phosphatase [5],other results
"Oc1ccc2c(c1)CC[C@@H](c1ccccc1)[C@H]2c1ccc(OCCN2CCCC2)cc1 (single isomer, unassigned) [inactive enantiomer of lasofoxifene]",–,–,–,–,–,–,–,–,–,–,–,"inhibition of estrone-stimulated uterine weight ([1]; any dose used (1, 3, 10 μg)): no inhibitory effect; inhibition of vaginal weight (estrone-stimulated) ([1]; any dose used (1, 3, 10 μg)): no inhibitory effect; stimulation of uterine weight (estrogenic effect) [1]: no stimulatory effect; stimulation of vaginal weight (estrogenic effect) [1]: no stimulatory effect"
"CC/C(=C(/c1ccc(OCCN(C)C)cc1)c1cccc(O)c1)c1ccccc1 [Droloxifene, (E)-3-[1-[4-[2-(Dimethylamino)ethoxy]phenyl]-2-phenyl-1-butenyl] phenol]",17,101,"36.71^b,d ± 0.12 μm",18.50 ± 0.07 μm,did not significantly change,478,100,23 of 23,–,–,–,–
"C[C@]12CC[C@@H]3c4ccc(O)cc4CC[C@H]3[C@@H]1CC[C@@H]2O [E2, 17β-estradiol]",–,–,–,–,–,–,–,–,–,–,–,"ALP (serum alkaline phosphatase activity) [4]: 59 ± 4 IU/L; CHOLESTEROL (serum) [4]: 1.37 ± 0.18 mmol/L; TOTAL FAT [4]: 19.5 ± 2.5 %; LUMBAR SPINE BMD [4, 8]: 0.2457 ± 0.0049 g/cm^2; LUMBAR SPINE Prevention of Bone Loss [4, 8]: 98%"
"CC/C(=C(\c1ccc(I)cc1)c1ccc(OCCN2CCCC2)cc1)c1ccccc1 [Idoxifene, (E)-1-[2-[4-[1-(4-Iodophenyl)-2-phenyl-1-butenyl]phenoxy]ethyl]pyrrolidine]",50,176,"29.35^b,d ± 0.05 μm","32.14^b,d ± 0.05 μm",125%,86,71,20 of 28,–,–,–,"tumors in the progression category, % [3]: 33%; tumors in the progression category, number of total [3]: 8 of 24"
"COc1ccc(-c2sc3cc(O)ccc3c2Oc2ccc(OCCN3CCCCC3)cc2)cc1.Cl [LY 353381, 6-hydroxy-3-[4-[2-(1-piperidinyl)ethoxy]phenoxyl]-2-(4-methoxyphenyl) benzo [b] thiophene hydrochloride]",–,–,–,–,–,–,–,–,1.87 ± 0.07,15.5 ± 0.25,90.25 ± 0.127 (2),–
"CN(C)CCOc1ccc(/C(=C(/CCCl)c2ccccc2)c2ccc(O)cc2)cc1 [OH-Toremifene, (Z)-(2)-2-[4-(4-chloro-1-(4-hydroxyphenyl)-2-phenyl-1-butenyl)phenoxy]-N,N-dimethylethanamine]",–,–,–,–,–,–,–,–,72.1 ± 7.6,29.6 ± 2.1,75.73 ± 3.52 (3),–
"Cl.O=C(c1ccc(OCCN2CCCCC2)cc1)c1c(-c2ccc(O)cc2)sc2cc(O)ccc12 [Raloxifene, [2-(4-hydroxyphenyl)-6-hydroxybenzo[b]thien-3-yl] [4-[2-(1-piperidinyl)ethoxy]phenyl]-methanone hydrochloride]",26,122,"34.72^b,d ± 0.06 μm",22.33^a ± 0.05 μm,did not significantly change,191,81,21 of 26,3.39 ± 0.9,12.8 ± 1.7,94.31 ± 1.74 (5),"inhibition of estrone-stimulated uterine weight ([1]; oral 9 days, 1 μg daily): 6%; inhibition of estrone-stimulated uterine weight ([1]; oral 9 days, 3 μg daily): 14%; inhibition of estrone-stimulated uterine weight ([1]; oral 9 days, 10 μg daily): 43%; inhibition of vaginal weight (estrone-stimulated) ([1]; oral 9 days, 10 μg daily): 24%; stimulation of uterine weight (estrogenic effect) [1]: 85%; stimulation of vaginal weight (estrogenic effect) [1]: 56%"
"CN(C)CCOc1ccc(/C(=C(/CCCl)c2ccccc2)c2ccccc2)cc1 [Toremifene, (Z)-2-[4-(4-Chloro-1,2-diphenyl-1-butenyl)phenoxy]-N,N-dimethylethanamine]",41,135,"31.47^b,d ± 0.04 μm","24.75^b,c ± 0.04 μm",86%,230,89,25 of 28,–,–,–,"tumors in the progression category, % [3]: 21%; tumors in the progression category, number of total [3]: 6 of 28"
